Several values for one entry are separate records, joined by “and”; a condition that tells them apart may be missing. Equal values may be shown once.
Tested on: 168753-222-R-J1-PDC complex spheroid viability
Test: Anticancer human tumor 168753-222-R-J1-PDC patient-derived bladder carcinoma cell line growth inhibition [CLK]
Details: for viability, T/C: stronger effect = lower value
Description: A high-throughput screen of multi-cell type tumor spheroids was designed to identify active combinations of […] and targeted small molecules. Complex spheroids include a stromal component modeled by human endothelial cells (HUVEC) and fibroblasts modeled by human mesenchymal stem cells (MSCs). The concentration ranges selected for each drug and investigational agent were based upon clinically achievable concentrations if the clinical Cmax of the agent was known.
Compounds. The drugs and investigational agents: cirtuvivint (SM08502; NSC835563), CC-671 (NSC850746), vemurafenib (NSC761431), tapotoclax (NSC804041), sotorasib (NSC818433), adagrasib (NSC831453), MRTX-1133 (NSC836407), BAY2416964 (NSC825713), copanlisib (NSC816437), inavolisib (NSC800729), abemaciclib (NSC768073), osimertinib (NSC779217), entinostat (NSC756642), eltanexor (KPT-8602, NSC794443), venetoclax (NSC766270), ceralasertib (NSC777638), bortezomib (NSC756655), olaparib (NSC753686), talazoparib (NSC767125), alisertib (NSC759677), peposertib (NSC802822), gemcitabine (NSC613327), 5-fluorouracil (NSC19893), SN-38 (NSC673596), oxaliplatin (NSC266046), paclitaxel (NSC125973), and doxorubicin (NSC123127), were obtained from the National Cancer Institute (NCI) Developmental Therapeutics Program Chemical Repository. The FDA-approved anticancer drug set is available from the Developmental Therapeutics Program at https://dtp.cancer.gov/organization/dscb/obtaining/available plates.htm. […] The stock solutions were prepared in dimethyl sulfoxide (DMSO, Sigma-Aldrich, St. Louis, MO, cat. D2650), except for the platinum complexes which were prepared in saline (Quality Biological, Gaithersburg, MD, cat. 114-055-101), at 800-fold the tested concentration and stored at -70 degrees C prior to their use. All drugs and investigational agents were tested over a range starting from a high concentration at or near the clinical Cmax and decreasing in half-log increments. If the clinical Cmax for an agent had not been determined, the highest concentration tested was 10 microM.
Cell Culture. All cells were maintained in an incubator at 37 degrees C and 5% CO2 with 95% humidity. The PDC lines were cultured according to standard operating procedures established by the NCI PDMR. Briefly, all PDCs were thawed and cultured in Matrigel-coated flasks prepared with a working solution of 1X Ham's F-12 nutrient mix, without supplementation (Invitrogen, Waltham, MA, cat. 11765054), 100 U/mL penicillin-streptomycin (Invitrogen, cat. 15140122), and 2.5% Matrigel (Corning Inc., Corning, NY, cat. 354248) for the first three passages. The 947758-054-R-J2-PDC line was cultured in 6B/Colon 1A media, which includes advanced DMEM/F-12 (Thermo Fisher Scientific, cat. 12634028), 10 mM HEPES (Thermo Fisher Scientific, cat. 15630080), 1X GlutaMAX supplement (Thermo Fisher Scientific, cat. 35050061), 0.1 mg/mL primocin (InvivoGen, cat. ant-pm-2), 10% defined fetal bovine serum, heat inactivated (HyClone Laboratories Inc., cat. SH30070.03HI), 1.25 mM N-Acetyl-L-cysteine (Sigma-Aldrich, cat. A9165), 10 mM nicotinamide (Sigma-Aldrich, cat. N0636), 1X B-27 supplement (Thermo Fisher Scientific, cat. 17504044), 1X N-2 supplement (Thermo Fisher Scientific, cat. 17502048), and 10 microM Y-27632 dihydrochloride (Tocris Bioscience, cat. 1254). The 876862-298-R-J1-PDC was cultured in 6E media, which includes all 6B/Colon 1A media components plus 50% L-WRN conditioned media (ATCC, cat. CRL-3276), 50 ng/mL recombinant human EGF recombinant protein (hEGF; Thermo Fisher Scientific, cat. PHG0311), 10 ng/mL recombinant human fibroblast growth factor 10 (hGFG-10; PeproTech, cat. 100-26), 1 ng/mL recombinant human fibroblast growth factor 2 (hFGF-2; PeproTech, cat. 100-18B), and 1 µM prostaglandin E2 (PGE2; Tocris, cat. 2296). The 227483-062-R1-J1-PDC line was cultured in Panc media, containing all 6E components except hFGF-2, with the addition of 500 nM SB-431542 (Selleckchem, cat. S1067) and 10 nM gastrin (Tocris, cat. 3006). […]
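Also: viability measured after seven days of drug exposure.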
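For viability, T/C in this document: luminescence signal used as surrogate for viable cell amount; 100% = DMSO vehicle control wells.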

Row | SMILES | IC50 (compound alone, run of 08/01/2023) | IC50 (curve of compound) | viability, T/C (compound 0.00316 µM) | viability, T/C (compound 0.01 µM) | viability, T/C (compound 0.0316 µM) | viability, T/C (compound 0.1 µM) | viability, T/C (compound 0.316 µM) | viability, T/C (compound 1 µM) | viability, T/C (compound 3.16 µM) | viability, T/C (compound 10 µM) | viability, T/C (compound 0.000316 µM) | viability, T/C (compound 0.001 µM) | viability, T/C (compound 0.00949 µM) | viability, T/C (compound 0.03 µM) | viability, T/C (compound 0.0949 µM) | viability, T/C (compound 0.3 µM) | viability, T/C (compound 0.949 µM) | viability, T/C (compound 3 µM)
1 | CCN1CCN(Cc2ccc(Nc3ncc(F)c(-c4cc(F)c5nc(C)n(C(C)C)c5c4)n3)nc2)CC1 |  |  | 97.4% and 95.4% | 80.3% and 94% | 37.7% and 78.4% | 44.1% and 77.1% | 25.1% and 68.1% | 36.4% and 64.2% |  |  |  |  |  |  |  |  |  | 
2 | CCc1c2c(nc3ccc(O)cc13)-c1cc3c(c(=O)n1C2)COC(=O)[C@]3(O)CC |  |  | 86.5% and 95.1% | 49.5% and 86.4% | 31.5% and 79.7% | 32.8% and 59.9% | 15.3% and 52.8% | 12% and 15.8% |  |  |  |  |  |  |  |  |  | 
3 | COc1c(OCCCN2CCOCC2)ccc2c3n(c(=NC(=O)c4cnc(N)nc4)nc12)CCN3 |  | 6.47 nM and 8.95 nM | 59.7% and 74.2% | 44.1% and 48.3% | 10.2% and 17% | 13.6% and 15.3% | 7.59% and 8.3% | 2.26% and 3.63% |  |  |  |  |  |  |  |  |  | 
4 | NC(=O)C(=Cn1cnc(-c2cc(C(F)(F)F)cc(C(F)(F)F)c2)n1)c1cncnc1 |  |  |  |  |  |  |  |  |  |  |  |  | 102% and 101% | 76% and 95.7% | 52.8% and 83.2% | 48.1% and 84.1% | 41.1% and 68.7% | 26.5% and 52%
5 | Nc1ccn(C2OC(CO)C(O)C2(F)F)c(=O)n1 (configuration not stated) |  |  |  |  | 57.8% and 83.1% | 24.7% and 60.2% | 18% and 50.2% | 23.2% and 52.5% | 26.2% and 46.9% | 21.6% and 37.8% |  |  |  |  |  |  |  | 

The next lines start with results.

Row | IC50 (compound alone, run of 08/01/2023) | IC50 (curve of compound) | SMILES | viability, T/C (compound 0.00316 µM) | viability, T/C (compound 0.01 µM) | viability, T/C (compound 0.0316 µM) | viability, T/C (compound 0.1 µM) | viability, T/C (compound 0.316 µM) | viability, T/C (compound 1 µM) | viability, T/C (compound 3.16 µM) | viability, T/C (compound 10 µM) | viability, T/C (compound 0.000316 µM) | viability, T/C (compound 0.001 µM) | viability, T/C (compound 0.00949 µM) | viability, T/C (compound 0.03 µM) | viability, T/C (compound 0.0949 µM) | viability, T/C (compound 0.3 µM) | viability, T/C (compound 0.949 µM) | viability, T/C (compound 3 µM)
6 | 900 nM [middle of 12 runs] |  | CNC(=O)c1ccc(Nc2nc(OC3CCCC3)c3c(-c4ccc5nc(C)oc5c4)c[nH]c3n2)c(OC)c1 |  |  | 101% [middle of 12 runs] | 99.3% [middle of 12 runs] |  | 45.1% [middle of 12 runs] | 33.5% [middle of 12 runs] | 23.6% [middle of 12 runs] |  |  |  |  |  |  |  | 
7 |  | 1100 nM and 2930 nM | COC1C=CCC(C)C(C)S(=O)(=O)NC(=O)c2ccc3c(c2)N(CC2CCC21)CC1(CCCc2cc(Cl)ccc21)CO3 (configuration not stated) |  |  | 88.5% and 107% | 98.9% and 95.5% | 61.2% and 104% | 53.9% and 76% | 35.8% and 49.4% | 20.4% and 19% |  |  |  |  |  |  |  | 
8 |  | > 100 nM | Cn1ncnc1[C@H]1c2n[nH]c(=O)c3cc(F)cc(c23)N[C@@H]1c1ccc(F)cc1 | 70% and 106% | 87.6% and 108% | 74.9% and 108% | 55.2% and 91.6% |  |  |  |  | 82.2% and 103% | 97% and 99.6% |  |  |  |  |  | 
9 |  | 763 nM and 4400 nM | Nc1ccccc1NC(=O)c1ccc(CNC(=O)OCc2cccnc2)cc1 |  |  | 62.3% and 96.6% | 73.6% and 91.6% | 60.1% and 85.8% | 37.7% and 86.4% | 38.6% and 60.3% | 11.8% and 22.8% |  |  |  |  |  |  |  | 
10 |  | > 10000 nM | O=C(c1cc(Cc2n[nH]c(=O)c3ccccc23)ccc1F)N1CCN(C(=O)C2CC2)CC1 |  |  | 76.1% and 102% | 97.4% and 102% | 93.7% and 95.2% | 62% and 95.9% | 46.3% and 107% | 70.3% and 93.2% |  |  |  |  |  |  |  | 
11 |  | > 10000 nM | O=c1[nH]cc(F)c(=O)[nH]1 |  |  | 93.5% and 101% | 102% and 107% | 88% and 104% | 109% and 112% | 67.9% and 113% | 53.5% and 93.2% |  |  |  |  |  |  |  | 

From PubChem BioAssay AID2060626 (Molecular Pharmacology Branch, DTP, NCI, 2025)
